Experimental data published in patent publication US11692011B2, “Hepatitis B virus-derived polypeptide and anti-viral use thereof” (priority 2018, dated 2023).
No end group written: not given here.

Columns and labels:
HIV-1 [1] = conditions: 10 μM, 2 days, HIV-1-infected MT-4 cells
Description: To evaluate anti-HIV-1 effects of the three polypeptides, cell-based anti-viral effects were analyzed. MT-4 cells (4×10^5 cells) were infected with HIV-1 (4×10^5 CCID50) for 1 hour. The MT-4 cells were obtained from NIH/AIDS Research and Reference Reagent Program. 293FT cells were transfected for 48 hr with HIV-1 using a pBR_HIV-1_M_NL4-3_IRES_eGFP vector (DS441) which co-expresses Nef and enhanced green fluorescence protein (eGFP) from a single bicistronic RNA, and Lipofectamine 2000 reagent (Life Technologies). A supernatant containing a viral precursor HIV-1 was harvested, and the viral titer was determined using p24 ELISA (ABL). For amplification of infectious HIV-1, MT-4 cells were infected with the viral precursor HIV-1 at a multiplicity of infection (MOI) of 0.5 for 72 hr. […]
In this regard, DMSO and AZT were purchased from Sigma-Aldrich. After 2 days of incubation, GFP images were obtained using a fluorescence microscope. The relative GFP intensity was determined using an ImageJ software program (National Institutes of Health) in pixels per area. […] Cell viability against the treated reagents was assessed by an MTT assay.
In detail, MT-4 cells were prepared at a density of 1×10^4 cells, and incubated with varying concentrations of Poly6 for 5 days. Cytotoxicity was determined using an MTT assay kit (Promega). […]

HBV [2] = assay: Anti-HBV effect in HepG2.2.15 or pHBV-1.2x-WT transfected HepG2 cells (HBsAg/HBeAg ELISA, Q-PCR, Southern blot); format: cell-based; conditions: for e antigen / s antigen: treated for 48 hr
Description: In this Experimental Example, HBV polymerase-derived peptides having anti-HBV effects were identified, and cell viability upon treatment thereof was analyzed. […] Then, quantitative PCR and ELISA were performed to examine virion replication and HBV surface antigen (HBsAg).
Chronic HBV infection is known to cause severe liver diseases such as cirrhosis and hepatocellular carcinoma, unlike acute infection. Therefore, it is important to develop anti-HBV drugs that overcome chronic infections. However, since the HBV genome is integrated into the host chromosome, the complete removal of the virus from human liver and serum remains a difficult problem. Therefore, in this Experimental Example, to evaluate the anti-viral effect of Poly6, HepG2.2.15 permanent cell line that continuously expresses HBV was treated with Poly6. Further, HepG2 cells were seeded in a 6-well plate, and then transiently transfected with pHBV-1.2×-WT. […] To measure secreted HBsAg and HBeAg in culture supernatants, HBsAg (BIOKIT) and HBeAg (AccuDiag) ELISA were performed according to experimental methods provided. For detection of 8-hydroxy-2′-deoxyguanosine (8-OHdG) activity, an 8-OHdG assay kit (OxiSelect Oxidative DNA Damage ELISA kit, Cell Biolabs) and ELISA were performed according to the manufacturer's protocol.
To measure extracellular virion secretion, Southern blot analysis was performed. In detail, before ultra-centrifugation at 4° C. and 24,000 rpm for 3 hr, cell debris was removed, and virions were precipitated from the supernatant using 8% PEG6000 (Sigma) on ice for 1 hr. Pellets were harvested with PBS, and HBV DNA was collected using a QIAamp DNA mini kit (QIAGEN) according to the manufacturers instructions. Viral DNA was measured using quantitative real-time PCR (Q-PCR). PCR amplification was performed using a QPCR primer set targeting a small surface gene, which is designed to amplify an a101-bp product (Table 2). Q-PCR was performed using a commercial SensiFAST SYBR Lo-ROX kit (BIOLINE) and an HBV Genesig standard kit (Primer design) to calibrate a viral load. In addition, to detect extracellular HBV DNA, supernatants were collected and HBV particles were precipitated using […] (Sigma) as described above. Virus pellets were collected from PBS and DNA was extracted with a lysis buffer (0.25% SDS, 250 mM Tris-HCl, pH 7.4 and 250 mM EDTA). Purified HBV DNA was separated on a 1% agarose gel, transferred to a nylon membrane (Hybond N+; Amersham) by Southern blotting, and hybridized with a 32P-labeled wild-type, full length HBV DNA probe. Analysis was performed using a random primer DNA labeling kit (TaKaRa). Autoradiography was performed and analyzed using a BAS 2500 image analyzer (Fuji Photo Film).

[3] = test system: mitochondrial reactive oxygen species (mtROS); assay: Mitochondrial reactive oxygen species (MitoSox, flow cytometry) in HepG2 cells; format: cell-based, human; conditions: for production of reactive oxygen species (mtROS) by mitochondrial stress: HepG2 cells, 2 hr to 24 hr, compared with PBS, rotenone 0.5 μM
Description: After culturing the cells for an appropriate time, the cells were incubated with 5 μM of MitoSox (Molecular probes) at 37° C. for 30 min. For flow cytometry, cell pellets were re-suspended in FACS buffer (1% FBS and 1 mM EDTA in PBS) and fixed with 4% paraformaldehyde. To prevent mitochondrial dysfunction, 10 μM of MitoTempo (SigmaAldrich) was pretreated for 12 hr, and 0.5 μM of rotenone (SigmaAldrich) reagent was used as a positive control for ROS induction through mitochondrial stress.

HBV [4] = assay: Combination treatment of entecavir and Poly6 in HepG2-2.15 cells (ELISA, qPCR); format: cell-based; conditions: HepG2-2.15, 48 hr
Description: (§1) Through the combination treatment of entecavir, which is currently used as an HBV anti-viral agent having a mechanism whereby activity of HBV polymerase in the nucleus is inhibited and converted to a phosphorylated form, and Poly6, which was confirmed to increase IFN-I, its anti-HBV effect and synergistic effect of IFN-I increase were examined. HepG2-2.15 cells were incubated at a density of 5×10^5 cells/well on a 6-well culture plate for 24 hr, and treated with PBS, ETV, or Poly6 alone or in combination of two substances. After incubating the cells for 48 hr, supernatants were collected, and subjected to ELISA, qPCR, and LDH assay.

IFN-I = IFN-I related mRNA levels in HepG2-2.15 cells; format: cell-based, human; conditions: compared with PBS group
From the text: IFN-I is induced by host cells to regulate viral infection (Stetson & Medzhitov, 2006). Therefore, to examine the effect of Poly6 on IFN-I production in HepG2-2.15 cells and mouse liver, mRNA levels of IFN-β, RIG-I, and ISG15 were examined.
In addition, to measure IFN levels by indirectly using a luciferase reporter gene for IFN-I bioassay and neutralization analysis, hMH55-293-ISRE cells was used, into which interferon sensitive response element (ISRE) associated with the luciferase reporter gene was inserted at the 3′-end using 5 μg of puromycin (Sigma Aldrich). After collecting supernatants from cells treated with each reagent for 24 hr or 48 hr, the supernatants were added to hMH55-293-ISRE cells for 6 hr. After incubation, cells were washed with PBS, and lysed with a reporter lysis buffer (E1500, Promega) at room temperature for 30 min. A luciferase assay reagent (E1500, Promega) was added and luminescence was measured using a TECAN m200 reader (TECAN).
as §1
Meanwhile, to examine a synergistic effect of the combination treatment of two substances with respect to the increase level of IFN-I, mRNAs of single treatment groups and combination treatment groups were extracted, and IFN-α, IFN-β, and TNF-α expression levels were observed. […] In addition, IFN levels were indirectly measured using a luciferase reporter gene of hMH55-293-ISRE cell.

HepG2.2.15 cells = conditions: up to 10 μM
Description: (§2) In detail, HepG2, HepG2.2.15, and HepG2-hNTCP-C4 cells (expressing NTCP receptors on the cell membrane) were plated in a 96 microplate (1×10^4 cells/well), and incubated for 5 days with increasing concentrations of ETV (30 nM) and Poly6. For an MTS assay, a cell-titer 96 aqueous one solution was directly added to each well, and the plate was incubated for 3 hr. The plate was read at 490 nm, and each analysis was repeated in triplicate.

MT-4 cells = assay: Cytotoxicity assay (MTT) in MT-4 cells; conditions: up to 25 μM, 5 days
Description: Cell viability against the treated reagents was assessed by an MTT assay.
In detail, MT-4 cells were prepared at a density of 1×10^4 cells, and incubated with varying concentrations of Poly6 for 5 days. Cytotoxicity was determined using an MTT assay kit (Promega).

HepG2 cells = assay: Cell viability (MTS assay), HepG2; format: cell-based, human; conditions: up to 10 μM
Description: as §2

HepG2-hNTCP-C4 cells = conditions: up to 10 μM
Description: as §2

HIV-1 [5] = conditions: HIV-1-infected MT-4 cells, 5 days, dose-dependent manner
Description: In detail, MT-4 cells were prepared at a density of 1×10^4 cells, and incubated with varying concentrations of Poly6 for 5 days. Cytotoxicity was determined using an MTT assay kit (Promega). To analyze the anti-cytotoxic effect of Poly6 from cell death caused by cytotoxicity due to HIV-infection, MT-4 cells (1×10^4 cells) were infected with HIV-1 (1×10^4 CCID50), incubated for five days, and then subjected to cell viability assays. In addition, to determine HIV-1 titers in the supernatant, p24 ELISA was performed. […] Similar to AZT, cytopathic inhibitory effects of Poly6 on HIV-1-infected MT-4 cells were analyzed.

[6] = compared with PBS (combination vs each single treatment)

With GRLVFQT (Hepatitis B virus) [Poly7] the “virus production (HIV-1 titers by GFP imaging and p24 ELISA)” value (HIV-1 [1]) was “reduced”, the e antigen (HBV [2]) was “reduced” and the s antigen (HBV [2]) was “reduced”.
CC1(C)CC(NC(=O)C[P+](c2ccccc2)(c2ccccc2)c2ccccc2)CC(C)(C)N1[O] [MitoTEMPO] was tested, and the “mitochondrial reactive oxygen species increased by rotenone and Poly6, after antioxidant treatment” value ([3]; MitoTempo 10 μM pretreated 12 hr) was “reduced again”.
For C=C1[C@H](CO)[C@@H](O)C[C@@H]1n1cnc2c(=O)[nH]c(N)nc21 [ETV, entecavir], the “extracellular HBV DNA levels” value (HBV [4]; compared with PBS (combination also vs single treatment)) was “statistically significantly reduced”, the “level of extracellular e antigen” value (HBV [4]; [6]) was “no significant reduction effect” and the “level of extracellular s antigen” value (HBV [4]; [6]) was “no significant reduction effect”. The “mRNA level of IFN-β” value (IFN-I) was “no statistical significance”, the “mRNA level of ISG15” value (IFN-I) was “no statistical significance” and the “mRNA level of RIG-I” value (IFN-I) was “no statistical significance”. The “viral replication levels (viral titers)” value (HBV [2]; ETV 30 nM, Poly6 10 μM, 2 days) was “reduced by ETV, but there was no statistical significance”, the “extracellular virion secretion (Southern blot)” value (HBV [2]; compared with PBS) was “clearly decreased” and the “production of reactive oxygen species (mtROS) by mitochondrial stress” value [3] was “not observed”.
In the case of GRLVFQ [Poly6, GRLVFQ], the “cytotoxic activity / cell viability, HepG2.2.15” value (HepG2.2.15 cells) is reported as “did not exert significant cytotoxic activity”, the “cytotoxic activity against MT-4 cells (MTT)” value (MT-4 cells) is reported as “did not exert significant cytotoxic activity” and the “cytotoxic activity / cell viability, HepG2” value (HepG2 cells) is reported as “did not exert significant cytotoxic activity”. For the same compound, the “cytotoxic activity / cell viability, HepG2-hNTCP-C4” value (HepG2-hNTCP-C4 cells) was “did not exert significant cytotoxic activity”.
With GRLVF (Hepatitis B virus) [Poly5] the “virus production (HIV-1 titers by GFP imaging and p24 ELISA)” value (HIV-1 [1]) was “reduced”, the e antigen (HBV [2]) was “reduced” and the s antigen (HBV [2]) was “reduced”.
For Cc1cn([C@H]2C[C@H](N=[N+]=[N-])[C@@H](CO)O2)c(=O)[nH]c1=O [AZT, 3-azido-3-deoxythymidine], the “cell protective effect (cytopathic inhibitory effect)” value (HIV-1 [5]) was “significant cell protective effect”.
For C=C(C)[C@H]1Cc2c(ccc3c2O[C@@H]2COc4cc(OC)c(OC)cc4[C@@H]2C3=O)O1 [rotenone], the “production of reactive oxygen species (mtROS) by mitochondrial stress” value [3] was “significantly increased”.
